Numbers after ± are expanded uncertainties.
Settings: Crystal; visual observation

Normal melting temperature: 120.00 ± 0.5 °C
Structure (SMILES): Cc1ccc(S(=O)(=O)[O-])cc1.c1ccc2sc[nH+]c2c1 [benzothiazolium p-toluenesulfonate]
